Assay results as given in US20070027184A1, “Multicyclic sulfonamide compounds as inhibitors of histone deacetylase for the treatment of disease” (KALYPSYS, INC., priority 2005, published 2007).
Like-named read-outs stand apart in the source and are kept apart here.

Key:
HDAC in cells = test: Cellular IC50 (cellular histone hyperacetylation / differential cytotoxicity assays); format: cell-based
Description: These two secondary assays evaluates a compound's ability to inhibit HDAC in cells by measuring cellular histone acetylation levels. The cytoblot facilitates quantitative EC50 information for cellular HDAC inhibition. Transformed cell lines (e.g. HeLa, A549, MCF-7) are cultured under standard media and culture conditions prior to plating.
Cells (approx. 2,500/well) are allowed to adhere 10-24 hours to wells of a 384-well Greiner PS assay plate in media containing 1-5% serum. Cells are treated with appropriate compound and specific concentrations for 0 to 24 hours. Cells are washed once with PBS (60 ul) and then fixed (95% ethanol, 5% acetic acid or 2% PFA) for 1 minute at RT (30 ul). Cells are blocked with 1% BSA for 1 hour and washed and stained with antibody (e.g. anti-Acetylated Histone H3, Upstate Biotechnology), followed by washing and incubation with an appropriate secondary antibody conjugated to HRP or fluorophore. For luminescence assays, signal is generated using Luminol substrate (Santa Cruz Biotechnology) and detected using an Aquest plate reader (Molecular Devices).
HDAC inhibitors display differential cytotoxicity toward certain transformed cell lines. Cells are cultured according to standard ATCC recommended conditions that are appropriate to each cell type. Compounds were tested for their ability to kill different cell types (normal and transformed) using the ATPlite luminescence ATP detection assay system (Perkin Elmer). Assays are run in either 384-well or 1536-well Greiner PS plates. Cells (30 ul or 5 ul, respectively) are dispensed using either multichannel pipette for 384-well plates, or proprietary Kalypsys bulk liquid dispenser for 1536-well plates. Compounds added using proprietary pin-transfer device (500 nL or 5 nL) and incubated 5 to 30 hours prior to analysis. Luminescence is measured using Aquest plate reader (Molecular Devices).

[1] = test system: HCT-116 colorectal cancer cells; test: in vivo; details: for T/C value for efficacy at MTD: daily oral gavage
Description: (§1) 5×10^6 HCT-116 colorectal cancer cells were injected subcutaneously into the right flank of 4-6 week old female nude (nu/nu) mice. […] Tumor burden was determined twice weekly by measurement with calipers in 2-dimensions (length (l)×width (w)) and the volume of spheroid calculated using the formula (l×(w)^2/2). Bodyweight was measured and recorded on same day as tumor volume measurement.

in vivo = details: female, mouse, in vivo
Description: as §1

HDAC = test: In vitro HDAC-inhibition assay (Fluor de Lys); format: biochemical
Description: This assay measures a compound's ability to inhibit acetyl-lysine deacetylation in vitro and was used as both a primary screening method as well as for IC50 determinations of confirmed inhibitors. The assay is performed in vitro using an HDAC enzyme source (e.g. partially purified nuclear extract or immunopurified HDAC complexes) and a proprietary fluorescent substrate/developer system (HDAC Quantizyme Fluor de Lys Fluorescent Activity Assay, BIOMOL). The assay is run in 1,536-well Greiner white-bottom plates using the following volumes and order of addition:
Step 1: Enzyme (2.5 ul) source added to plate (from refrigerated container)
Step 2: Compounds (50 nl) added with pin transfer device
Step 3: Fluor de Lys (2.5 ul) substrate added, incubate at RT, 30 minutes
Step 4: Developer (5 ul) solution is added (containing TSA), to stop reaction
Step 5: Plate Reader—data collection
The deacetylated fluorophore is excited with 360 nm light and the emitted light (460 nm) is detected on an automated fluorometric plate reader (Aquest, Molecular Devices).

[2] = 50 mg/kg QD orally, data from another study

Row | IC50 (HDAC) | SMILES | IC50 (HDAC in cells) | also measured
1 | ≤ 1000 nM | CC(=O)SCC(=O)c1ccc(NS(=O)(=O)c2ccc3c(c2)ncn3C)nc1 [Example 2] | ≤ 1000 nM | –
2 | ≤ 1000 nM | CC(=O)SCC(=O)c1ccc(NS(=O)(=O)c2ccc3c(c2)OCCO3)cn1 [Example 3, Thioacetic acid S-{2-[5-(2,3-dihydro-benzo[1,4]dioxine-6-sulfonylamino)-pyridin-2-yl]-2-oxo-ethyl}ester] | ≤ 1000 nM | –
3 | – | CC(=O)SCC(=O)c1ccc(NS(=O)(=O)c2ccc3c(c2)CCO3)nc1 [Example 4, Thioacetic acid S-{2-[6-(2,3-dihydro-benzofuran-5-sulfonylamino)-pyridin-3-yl]-2-oxo-ethyl}ester] | ≤ 1000 nM | –
4 | ≤ 1000 nM | CC(=O)SCC(=O)c1ccc(NS(=O)(=O)c2ccc3ncccc3c2)cc1 [Example 5, Thioacetic acid S-{2-oxo-2-[4-(quinoline-6-sulfonylamino)-phenyl]-ethyl}ester] | ≤ 1000 nM | –
5 | ≤ 1000 nM | CC(=O)SCC(=O)c1ccc(NS(=O)(=O)c2ccc3c(c2)OCO3)nc1 [Example 6, Thioacetic acid S-{2-[6-(benzo[1,3]dioxole-5-sulfonylamino)-pyridin-3-yl]-2-oxo-ethyl}ester] | ≤ 1000 nM | –
6 | ≤ 1000 nM | CC(=O)SCC(=O)c1cnc(NS(=O)(=O)c2ccc3c(c2)OCCO3)nc1 [Example 7, Thioacetic acid S-{2-[2-(2,3-dihydro-benzo[1,4]dioxine-6-sulfonylamino)-pyrimidin-5-yl]-2-oxo-ethyl}ester] | > 1000 nM | –
7 | ≤ 1000 nM | O=C(CSSCC(=O)c1ccc(NS(=O)(=O)c2ccc3c(c2)OCCO3)nc1)c1ccc(NS(=O)(=O)c2ccc3c(c2)OCCO3)nc1 [Example 8, 2,3-Dihydro-benzo[1,4]dioxine-6-sulfonic acid [5-(2-mercapto-acetyl)-pyridin-2-yl]-amide disulfide] | ≤ 1000 nM | –
8 | > 1000 nM | O=C(O)CCSCC(=O)c1ccc(NS(=O)(=O)c2ccc3c(c2)OCCO3)nc1 [Example 9, 3-{2-[6-(2,3-Dihydro-benzo[1,4]dioxine-6-sulfonylamino)-pyridin-3-yl]-2-oxo-ethylsulfanyl}propionic acid] | – | –
9 | ≤ 1000 nM | CN(C)CCSSCC(=O)c1ccc(NS(=O)(=O)c2ccc3c(c2)OCCO3)nc1 [Example 10, 2,3-Dihydro-benzo[1,4]dioxine-6-sulfonic acid {5-[2-(2-dimethylamino-ethyldisulfanyl)-acetyl]-pyridin-2-yl}-amide] | ≤ 1000 nM | –
10 | ≤ 1000 nM | O=C(CS)c1ccc(NS(=O)(=O)c2ccc3c(c2)OCCO3)nc1 [Example 11, 2,3-Dihydro-benzo[1,4]dioxine-6-sulfonic acid[5-(2-mercapto-acetyl)-pyridin-2-yl]-amide] | ≤ 1000 nM | –
11 | ≤ 1000 nM | O=C(CSC(=O)c1ccccc1)c1ccc(NS(=O)(=O)c2ccc3c(c2)OCCO3)nc1 [Example 12, Thiobenzoic acid S-{2-[6-(2,3-dihydro-benzo[1,4]dioxine-6-sulfonylamino)-pyridin-3-yl]-2-oxo-ethyl}ester] | ≤ 1000 nM | –
12 | ≤ 1000 nM | NC(CSSCC(=O)c1ccc(NS(=O)(=O)c2ccc3c(c2)OCCO3)nc1)C(=O)O (stereo not shown) [Example 13, 2-Amino-3-{2-[6-(2,3-dihydro-benzo[1,4]dioxine-6-sulfonylamino)-pyridin-3-yl]-2-oxo-ethyldisulfanyl}-propionic acid] | ≤ 1000 nM | –
13 | – | CC(=O)SCC(=O)c1ccc(NS(=O)(=O)c2ccc3c(c2)OCCN3C)nc1 [Example 14, Thioacetic acid S-{2-[6-(4-methyl-3,4-dihydro-2H-benzo[1,4]oxazine-7-sulfonylamino)-pyridin-3-yl]-2-oxo-ethyl}ester] | ≤ 1000 nM | –
14 | – | CC(=O)SCC(=O)c1ccc(NS(=O)(=O)c2ccc3c(c2)OCCCO3)nc1 [Example 15, Thioacetic acid S-{2-[6-(3,4-dihydro-2H-benzo[b][1,4]dioxepine-7-sulfonylamino)-pyridin-3-yl]-2-oxo-ethyl}ester] | ≤ 1000 nM | –
15 | – | CC(=O)SCC(=O)c1ccc(NS(=O)(=O)c2ccc3c(c2)OCC(C)(C)CO3)nc1 [Example 16, Thioacetic acid S-{2-[6-(3,3-dimethyl-3,4-dihydro-2H-benzo[b][1,4]dioxepine-7-sulfonylamino)-pyridin-3-yl]-2-oxo-ethyl}ester] | ≤ 1000 nM | –
16 | – | CC(=O)SCC(=O)c1csc(NS(=O)(=O)c2ccc3c(c2)OCCO3)n1 [Example 17, Thioacetic acid S-{2-[2-(2,3-dihydro-benzo[1,4]dioxine-6-sulfonylamino)-thiazol-4-yl]-2-oxo-ethyl}ester] | > 1000 nM | –
17 | – | CC(=O)SCC(=O)c1cnc(NS(=O)(=O)c2ccc3c(c2)OCCO3)s1 [Example 18, Thioacetic acid S-{2-[2-(2,3-dihydro-benzo[1,4]dioxine-6-sulfonylamino)-thiazol-5-yl]-2-oxo-ethyl}ester] | ≤ 1000 nM | –
18 | – | CC(=O)SCC(=O)c1ccc(NS(=O)(=O)c2ccc3nc(N4CCN(C)CC4)ccc3c2)nc1 [Example 19, Thioacetic acid S-(2-{6-[2-(4-methyl-piperazin-1-yl)-quinoline-6-sulfonylamino]-pyridin-3-yl}-2-oxo-ethyl)ester] | ≤ 1000 nM | –
19 | – | CC(=O)SCC(=O)c1ccc(NS(=O)(=O)c2ccc3nc(N4CCCN(C)CC4)ccc3c2)nc1 [Example 20, Thioacetic acid S-(2-{6-[2-(4-methyl-[1,4]diazepan-1-yl)-quinoline-6-sulfonylamino]-pyridin-3-yl}-2-oxo-ethyl)ester] | ≤ 1000 nM | –
20 | – | CC(=O)SCC(=O)c1ccc(NS(=O)(=O)c2ccc3nc(NCCN(C)C)ccc3c2)nc1 [Example 21, Thioacetic acid S-(2-{6-[2-(2-dimethylamino-ethylamino)-quinoline-6-sulfonylamino]-pyridin-3-yl}-2-oxo-ethyl)ester] | ≤ 1000 nM | –
21 | – | CC(=O)SCC(=O)c1ccc(NS(=O)(=O)c2ccc3nc(NCCCN(C)C)ccc3c2)nc1 [Example 22, Thioacetic acid S-(2-{6-[2-(3-dimethylamino-propylamino)-quinoline-6-sulfonylamino]-pyridin-3-yl}-2-oxo-ethyl)ester] | ≤ 1000 nM | –
22 | – | CC(=O)SCC(=O)c1ccc(NS(=O)(=O)c2ccc3nc(N(C)CCCN(C)C)ccc3c2)nc1 [Example 23, Thioacetic acid S-[2-(6-{2-[(3-dimethylamino-propyl)-methyl-amino]-quinoline-6-sulfonylamino}-pyridin-3-yl)-2-oxo-ethyl]ester] | ≤ 1000 nM | –
23 | – | CC(=O)SCC(=O)c1ccc(NS(=O)(=O)c2ccc3nc(N(C)C)ccc3c2)nc1 [Example 24, Thioacetic acid S-{2-[6-(2-dimethylamino-quinoline-6-sulfonylamino)-pyridin-3-yl]-2-oxo-ethyl}ester] | ≤ 1000 nM | –
24 | – | O=C(CCCCCCC(=O)Nc1ccccc1)NO [SAHA, reference compound] | – | T/C [1, 2]: 59%; T/C ([1]; 100 mg/kg QD orally): 65%; T/C ([1]; 125 mg/kg QD orally): 73%; T/C ([1]; 175 mg/kg QD orally): 41%; T/C ([1]; 250 mg/kg QD orally): 52%; T/C ([1]; 350 mg/kg QD orally): 24%; Lethality ([1]; 350 mg/kg daily oral gavage): lethality was observed; T/C ([1]; 475 mg/kg QD orally): 21%; T/C value for efficacy at MTD [1]: 52%; MTD (in vivo; nude (nu/nu), po): 250 mg/kg

Row | SMILES | IC50 (HDAC) | IC50 (HDAC in cells) | also measured
25 | CC(=O)SCC(=O)c1ccc(NS(=O)(=O)c2ccc3c(c2)OCCO3)nc1 [Example 1] | ≤ 1000 nM | ≤ 1000 nM | Survival [1, 2]: 10/10; T/C [1, 2]: 53%; Tolerability (weight loss, mortality) ([1]; 50 mg/kg, determined previously): well tolerated; Survival ([1]; 100 mg/kg QD orally): 8/10; T/C ([1]; 100 mg/kg QD orally): 42%; Survival ([1]; 125 mg/kg QD orally): 7/10; T/C ([1]; 125 mg/kg QD orally): 29%; Survival ([1]; 175 mg/kg QD orally): 0/10; T/C ([1]; 175 mg/kg QD orally): 11%; Survival ([1]; 250 mg/kg QD orally): 2/10; T/C ([1]; 250 mg/kg QD orally): 15%; T/C value for efficacy at MTD [1]: 53%; MTD (in vivo; daily oral gavage, highest dose without lethality or ≧20% bodyweight loss, read-out: Maximum tolerated dose (MTD)): < 100 mg/kg
